Experimental data from US11969499B2, “Hydrogel delivery of sting immunotherapy for treatment cancer” (WILLIAM MARSH RICE UNIVERSITY, priority 2017, dated 2024).

Key:
[1] = test system: CD45+/CD11b+/CD11c+ dendritic cells; assay: Flow cytometric analysis of implant infiltration; assay type: in vivo, mice; conditions: for recruitment of immune cells to the hydrogel in vivo: subcutaneous flank of mice, within 3 days
Procedure: Flow cytometric analysis of implant infiltration. Implanted gels are harvested from mice, digested and processed into single cell suspension. Cells are incubated with blocking antibody, followed by addition of antibodies to create three panels: myeloid cells (CD45, Gr-1, Ly-6C, CD11b, F4/80), lymphoid cells (CD45, NK-1.1, CD11b, CD3e, CD8a, CD4, CD19) and dendritic cells (CD45, CD8a, CD11b, CD11c, PDCA-1 and CD103). For each time point five mice with two hydrogel boluses are assessed for an n of 10.

[2] = test system: MOC2-E6E7 tumors; assay: Tumor growth and survival study (Examples 3-4); assay type: in vivo, C57BL/6 mice; conditions: day 105 after initial inoculation; n=10 per group
Procedure: Tumor growth and survival study. For tumor experiments, 6-8 week old wild-type C57BL/6 female mice were maintained in a pathogen-free environment for the study. All protocols were in accordance with the guidelines for humane treatment of laboratory animals by the National Institutes of Health, the Animal Welfare Committee and the Center for Laboratory Animal Medicine and Care (CLAMC) at the University of Texas Health Science Center at Houston. Mice were injected with MOC2-E6E7 tumor cells on day 0 into the maxillary oral vestibule (30,000 cells in 30 μL volume), followed by controls or gel injections loaded with or without CDN on day 3 in the same oral cavity location (20 lag CDN per 30 μL injection). Tumor growth was measured using calipers and body weight was taken in all subjects two to three times per week. Photographs were also obtained. Kaplan-Meier survival and tumor growth curve analyses were performed from data obtained. Mice that maintained tumor clearance for 100 days were re-challenged with MOC2-E6E7 tumor cells again at day 105 and monitored similarly. All endpoints in tumor growth curve and survival data are a result of euthanasia due to excessive tumor burden, defined as tumor reaching 12 mm, tumor ulceration, or a weight loss of greater than 20%. The inventors observed no signs of unexpected disease or discomfort in the mice over the course of the experiments.
Statistical methods. Statistical analyses for Kaplan-Meier survival curves were performed using the log-rank/Mantel-Cox test with GraphPad Prism (GraphPad, San Diego, CA). For tumor growth curves, the Wilcoxon rank sum test was used to compare tumor size between STINGel and other groups. No adjustment for multiple testing was made because the study is novel and exploratory. All p values are two-sided and p values less than 0.05 were considered as significant. All statistical analyses were performed using the SAS software (version 9.4, the SAS Institute, Cary, NC).

[3] = test system: MOC2-E6E7 cells; assay: In vitro live/dead cell viability in unloaded and CDN-loaded MDP hydrogel; assay type: cell-based; conditions: no CDN, cells in 3-D gel, up to 7 days
Procedure: Preparation of cell—laden hydrogel for in vitro viability. MDP gel formulations with MOC2-E6E7 cells were prepared by diluting a cell suspension of 2,000,000 cells/mL in 2×HBSS with an equal volume of 4×CDN. The resulting suspension was then added to an equal volume of sterile 2 wt. % peptide in 298 mM sucrose and mixed to produce final samples of approximately 35,000 cells per 70 μL of 1 wt. %, 149 mM sucrose gel. Gels were then transferred into 0.4 cm 2 wells of Lab-Tek 16 well glass chamber slides (Thermo Fischer, Rochester, NY), pipetted to produce 70 μL pucks with flat profiles. Samples were allowed to shear recover for 5-10 mM before adding 200 μL cell media on top of each gel. The cell media was changed every 2 days, taking care to not dislodge the hydrogel material.
Cell viability was determined at each desired time point by performing live/dead assays as described below. Live/dead staining solution was prepared in DPBS with 2 μM Calcein AM for live cells (Life Technologies), 4 μM Ethidium homodimer for dead cells (Life Technologies), and 5 μg/mL Hoechst 33342 for nuclei (MP Biomedicals, Solon, OH). […] Cell media was removed and the gels were washed with PBS. Samples were then stained with 100 μL of prepared solution by incubating at RT for 15-30 mM. Following staining, gels were placed in PBS for immediate analysis by confocal microscopy. Gels were analyzed by z-stack imaging (100 μm) using a Nikon A1 Confocal Microscope with 20× air and 40× water objectives (405 nm blue channel laser, 488 nm green channel laser, 561 nm red channel laser). Image processing was done using NIS Elements, and live/dead cell counting was performed using the cell identification tool in Imaris 3D/4D Image Processing software, manually verified with nuclear counts when resolution allowed.

[4] = test system: MOC-2-E6E7 tumors; assay: MOC-2-E6E7 orthotopic murine model of HNSCC, survival (Example 2, FIG. 2E); design: species or system C57BL/6 mice; conditions: mouse, in vivo
Procedure: MOC-2-E6E7 Orthotopic murine model of HNSCC. 6 week-old male and female C57BL/6 mice will be inoculated in the left maxillary vestibule with MOC-2-E6E7 cells (30,000 cells in 30 μl volume). Animals will be monitored using a body condition scoring system to ensure they maintain a healthy weight and show no obvious signs of distress. At Day 14 post-tumor inoculation, STINGel (20 jug CDN in 30 μl of MDP hydrogel) or controls (as above) are injected into the oral tumor site. Animal studies will be done in triplicate, independent experiments for significance. Between-group differences in flow cytometric data will be statistically evaluated with one-way ANOVA and post-hoc analysis using Tukey's method. Differences between groups will be considered significant if p<0.05. In efficacy studies, Kaplan-Meier survival curves will be compared using the log-rank/Mantel-Cox test and tumor growth curves will be analyzed using the Koziol method (Koziol et al., 1981; 1982).

Substance: K2(SL)6K2 (SEQ ID NO: 1) (Ac-KKSLSLSLSLSLSLKK-NH2) [MDP gel, self-assembling multidomain peptide hydrogel, acetylated N-terminus and C-terminal amide]
- recruitment of immune cells to the hydrogel in vivo ([1]; listed as Lys-MDP): substantial population
- recruitment of immune cells to the hydrogel in vivo ([1]; listed as MDP hydrogel): robust recruitment of immunocytes
- CD45+/CD11b+/CD11c+ dendritic cells ([1]; three days after subcutaneous injection, un-loaded): 13.5%
- mice maintaining tumor clearance and reaching reinoculation point [2]: No mice
- cytocompatibility of unloaded hydrogel ([3]; listed as Lys-MDP): substantial MOC-2-E6E7 proliferation (green cells) & minimal cell death
- cytocompatibility of unloaded hydrogel ([3]; listed as MDP hydrogel): not intrinsically toxic
- cytocompatibility of unloaded hydrogel ([3]; listed as unloaded MDP gel): fully biocompatible
- cytocompatibility of unloaded hydrogel ([3]; listed as unloaded MDP hydrogel): cells are able to survive and proliferate within the 3-D hydrogel matrix
- mortality before day 60 [4]: 100%
